Test results: patent US5948916A, “Arylthiadiazole derivative and antiviral agent containing the same” (priority 1994, dated 1999)
≈ marks a conversion by molar mass, not a printed value. Where two headings read alike, the source gives them in different places.

Columns and labels:
[1] = system: HIV; experiment: Virucidal test against HIV (protection of HIV-infected MT-4 cells, MTT method); type: cell-based; settings: for S.I. (selectivity index, ratio CC50/EC50): CC50/EC50, MT-4 cells; for EC50: Human immunodeficiency virus 1, MT4, 120 h, read-out: EC50 (compound concentration effective to protect 50% of the MT-4 cells from death by HIV)
Experimental: (§1) Virucidal test aqainst HIV:
(§2) In RPMI1640 culture medium containing 20 mM HEPES buffer solution, 10% bovine fetus serum, and 20 μg/mL gentamycin, 3×10^4 cells of MT-4 (which will be killed by infection with HIV) were infected with HIV at a rate of 0.02 HIV per cell. To the fractions of the culture, predetermined portions of a sample containing the thiadiazole derivative of the compound No. shown in Table 27 and 28 were added, and the culture fractions were incubated at 37° C. After incubation for 5 days, living cells were measured by the MTT method to derive the compound concentration (EC50) which is effective to protects 50% of the MT-4 cells from death by HIV. Separately, the MT-4 cells were incubated in the same manner without infection by HIV, and the compound concentration (CC50) which causes death of 50% of the MT-4 cells. The ratio of CC50 /EC50 is the selectivity index (S.I.).

[2] = Cytotoxicity in MT-4 cells incubated without infection by HIV; type: cell-based; settings: human; MT-4 cells without infection by HIV, 37° C., 5 days, MTT method; read-out: CC50 (compound concentration which causes death of 50% of the MT-4 cells)
Experimental: as §1, §2

[3] = MT-4 cells, 0.02 HIV per cell, 37° C., 5 days, MTT method

SMILES	S.I. (selectivity index, ratio CC50/EC50) [1]	EC50 [1] [µg/mL]	CC50 at 120 h [2] [µg/mL]	EC50 [1, 3] [µg/mL]
CN(C)C(=O)Oc1nsnc1-c1cc(N)ccc1Cl [Compound 21, N,N-Dimethyl [3-(5-amino-2-chlorophenyl)-1,2,5-thiadiazol-4-yl] CARBAMATE]	240	0.15 (≈ 0.502 µM)	36 (≈ 121 µM)	–
CCCN(C)C(=O)Oc1nsnc1-c1cc(N)ccc1Cl [Compound 22, N-Methyl-N-propyl [3-(5-amino-2-chlorophenyl)-1,2,5-thiadiazol-4-yl] carbamate]	1048	0.021 (≈ 0.0643 µM)	22 (≈ 67.3 µM)	–
CN(C)C(=O)Oc1nsnc1-c1c(Cl)ccc(N)c1Cl [Compound 70, N,N-dimethyl [3-(3-amino-2,6-dichlorophenyl)-1,2,5-thiadiazol-4-yl] carbamate]	362	0.026 (≈ 0.078 µM)	9.4 (≈ 28.2 µM)	–
CCCN(C)C(=O)Oc1nsnc1-c1c(Cl)ccc(N)c1Cl [Compound 71, N-Methyl-N-propyl [3-(3-amino-2,6-dichlorophenyl)-1,2,5-thiadiazol-4-yl] carbamate]	2350	0.002 (≈ 0.00554 µM)	4.7 (≈ 13 µM)	–
CCCN(C)C(=O)Oc1nsnc1-c1c(Cl)ccc(C#N)c1Cl [Compound 87, N-Methyl-N-propyl [3-(2,6-dichloro-3-cyanophenyl)-1,2,5-thiadiazol-4-yl] carbamate]	7667	0.003 (≈ 0.00808 µM)	23 (≈ 62 µM)	–
CCCN(C)C(=O)Oc1nsnc1-c1c(Cl)ccc(C(=O)OC)c1Cl [Compound 91, N-Methyl-N-propyl [3-(2,6-dichloro-3-methoxycarbonylphenyl)-1,2,5-thiadiazol-4-yl] carbamate]	144	0.063 (≈ 0.156 µM)	9.1 (≈ 22.5 µM)	–
CCCN(C)C(=O)Oc1nsnc1-c1c(Cl)ccc(C(N)=O)c1Cl [Compound 93, N-methyl-N-propyl [3-(3-carbamoyl-2,6-dichlorophenyl)-1,2,5-thiadiazol-4-yl] carbamate]	59	1.1 (≈ 2.83 µM)	65 (≈ 167 µM)	–
CCCN(C)C(=O)Oc1nsnc1-c1c(F)ccc(N)c1Cl [Compound 99, N-Methyl-N-propyl [3-(3-amino-2-chloro-6-fluorophenyl)-1,2,5-thiadiazole-4-yl] carbamate]	2750	0.008 (≈ 0.0232 µM)	22 (≈ 63.8 µM)	–
CN(C)C=Nc1nsnc1-c1c(Cl)cccc1Cl [Compound 127, N^1 -Dimethyl-N^2-[3-(2,6-dichlorophenyl)-1,2,5-thiadiazol-4-yl] formamidine]	21	–	31 (≈ 103 µM)	1.5 (≈ 4.98 µM)
CCCN(C)C=Nc1nsnc1-c1c(Cl)cccc1Cl [Compound 128, N^1-methyl-N^1-propyl-N^2-[3-(2,6-dichlorophenyl)-1,2,5-thiadiazol-4-yl]formamidine]	48	–	9.2 (≈ 27.9 µM)	0.19 (≈ 0.577 µM)
CCN(C=Nc1nsnc1-c1c(Cl)cccc1Cl)CC [Compound 130, N^1-diethyl-N^2 - [3-(2,6-dichlorophenyl)-1,2,5-thiadiazol-4-yl]formamidine]	1000	–	14 (≈ 42.5 µM)	0.014 (≈ 0.0425 µM)
CCN(CC)C(C)=Nc1nsnc1-c1c(Cl)cccc1Cl [Compound 131, N^1-diethyl-N^2-[3-(2,6-dichlorophenyl)-1,2,5-thiadiazol-4-yl]acetamidine]	19	–	5.4 (≈ 15.7 µM)	0.29 (≈ 0.845 µM)
CN(C)S(=O)(=O)Oc1nsnc1-c1c(Cl)cccc1Cl [Compound 138]	9	–	9.9 (≈ 27.9 µM)	1.1 (≈ 3.11 µM)
Clc1cccc(Cl)c1-c1nsnc1OCc1ccccn1 [Compound 145]	39	–	2.7 (≈ 7.98 µM)	0.07 (≈ 0.207 µM)
Clc1cccc(Cl)c1-c1nsnc1OCc1cccnc1 [Compound 146]	6	–	1.9 (≈ 5.62 µM)	0.3 (≈ 0.887 µM)
O=[N+]([O-])c1ccccc1COc1nsnc1-c1c(Cl)cccc1Cl [Compound 149]	5	–	8.6 (≈ 22.5 µM)	1.7 (≈ 4.45 µM)
CSCOc1nsnc1-c1c(Cl)cccc1Cl [Compound 155]	> 270	–	> 100	0.37 (≈ 1.2 µM)
COCOc1nsnc1-c1c(Cl)cccc1Cl [Compound 156]	24	–	43 (≈ 148 µM)	1.8 (≈ 6.18 µM)
COCCOCOc1nsnc1-c1c(Cl)cccc1Cl [Compound 157]	128	–	46 (≈ 137 µM)	0.36 (≈ 1.07 µM)
COCCOc1nsnc1-c1c(Cl)cccc1Cl [Compound 159]	5	–	11 (≈ 36 µM)	2.2 (≈ 7.21 µM)
Clc1cccc(Cl)c1-c1nsnc1OCCBr [Compound 160, 3-(2-bromoethoxy)-4-(2,6-dichlorophenyl)-1,2,5-thiadiazole]	15	–	4.8 (≈ 13.6 µM)	0.32 (≈ 0.904 µM)
CCCN(C)CCOc1nsnc1-c1c(Cl)cccc1Cl [Compound 161, 3-(2,6-dichlorophenyl)-4-[2-(N-methyl-N-propylamino)ethoxy]-1,2,5-thiadiazole]	10	–	8.3 (≈ 24 µM)	0.8 (≈ 2.31 µM)
CCCN(C)C(=O)c1nsnc1-c1ccccc1Cl [Compound 195, N-methyl-N-propyl 4-(2-chlorophenyl)-1,2,5-thiadiazole-3-carboxamide]	25	–	37 (≈ 125 µM)	1.5 (≈ 5.07 µM)
CCCN(C)C(=O)Cc1nsnc1-c1ccccc1Cl [Compound 202, N-methyl-N-propyl [3-(2-chlorophenyl)-1,2,5-thiadiazol-4-yl]acetamide]	7	–	18 (≈ 58.1 µM)	2.5 (≈ 8.07 µM)
CN(CC#N)C(=O)Oc1nsnc1-c1c(Cl)cccc1Cl [Compound 218, N-(cyanomethyl)-N-methyl [3-(2,6-dichlorophenvl)-1,2,5-thiadiazol-4-yl] carbamate]	168	0.38 (≈ 1.11 µM)	64 (≈ 186 µM)	–
CN(CCC#N)C(=O)Oc1nsnc1-c1c(Cl)cccc1Cl [Compound 219, N-(2-cyanoethyl)-N-methyl [3-(2,6-dichlorophenyli-1,2,5-thiadiazol-4-yl] carbamate]	2556	0.018 (≈ 0.0504 µM)	46 (≈ 129 µM)	–
CN(CCO)C(=O)Oc1nsnc1-c1c(Cl)cccc1Cl [Compound 220, N-(2-Hydroxyethyl)-N-methyl [3-(2,6-dichlorophenyl)-1,2,5-thiadiazol-4-yl] carbamate]	18	3.5 (≈ 10.1 µM)	63 (≈ 181 µM)	–
CN(CCCC(=O)O)C(=O)Oc1nsnc1-c1c(Cl)cccc1Cl [Compound 222, N-(3-carboxypropyl)-N-methyl [3-(2,6-dichlorophenyl)-1,2,5-thiadiazol-4-yl] carbamate]	> 71	1.4 (≈ 3.59 µM)	> 100	–
CN(CCC(N)=O)C(=O)Oc1nsnc1-c1c(Cl)cccc1Cl [Compound 223, N-(2-carbamoylethyl)-N-methyl [3-(2,6-dichlorophenyl)-1,2,5-thiadiazol-4-yl] carbamate]	> 38	2.6 (≈ 6.93 µM)	> 100	–
CCOC(=O)CCN(C)C(=O)Oc1nsnc1-c1c(Cl)cccc1Cl [Compound 224, N-[2-(ethoxycarbonyl)ethyl]-N-methyl [3-(2,6-dichlorophenyl)-1,2,5-thiadiazol-4-yl] carbamate]	385	0.13 (≈ 0.322 µM)	50 (≈ 124 µM)	–
